Assay results taken from ChEMBL document CHEMBL5303573, “Mapping human microbiome drug metabolism by gut bacteria and their genes” (Nature, 2019).

What was measured:
[1] = The drug is tested on Ruminococcus torques strain: ATCC27756 for biotransformation. The drug concentrations were measured before and after a 12-h incubation by liquid-chromatography-coupled mass spectrometry (LC–MS); assay type: ADME; set-up: dose 2 uM, timepoint 0 vs 12 hours; conditions: 2 µM
[2] = The drug is tested on Bacteroides vulgatus strain: ATCC8482 for biotransformation. The drug concentrations were measured before and after a 12-h incubation by liquid-chromatography-coupled mass spectrometry (LC–MS); conditions: phocaeicola vulgatus, 2 µM
[3] = bacteroides eggerthii, 12 h, 2 µM
Description: The drug is tested on Bacteroides eggerthii strain: DSM20697 for biotransformation. The drug concentrations were measured before and after a 12-h incubation by liquid-chromatography-coupled mass spectrometry (LC–MS)

[4] = The drug is tested on Parabacteroides merdae strain: ATCC43184 for biotransformation. The drug concentrations were measured before and after a 12-h incubation by liquid-chromatography-coupled mass spectrometry (LC–MS); conditions: 2 µM
[5] = The drug is tested on Bacteroides ovatus strain: ATCC8483 for biotransformation. The drug concentrations were measured before and after a 12-h incubation by liquid-chromatography-coupled mass spectrometry (LC–MS); conditions: 2 µM
[6] = The drug is tested on Bifidobacterium longum subsp. Infantis strain: CCUG52486 for biotransformation. The drug concentrations were measured before and after a 12-h incubation by liquid-chromatography-coupled mass spectrometry (LC–MS); conditions: 2 µM
[7] = bacteroides thetaiotaomicron, 12 h, 2 µM
Description: The drug is tested on Bacteroides thetaiotaomicron strain: 3731 for biotransformation. The drug concentrations were measured before and after a 12-h incubation by liquid-chromatography-coupled mass spectrometry (LC–MS)

[8] = The drug is tested on Bacteroides cellulosilyticus strain: DSM14838 for biotransformation. The drug concentrations were measured before and after a 12-h incubation by liquid-chromatography-coupled mass spectrometry (LC–MS); conditions: 2 µM
[9] = enterocloster bolteae, 12 h, 2 µM
Description: The drug is tested on Clostridium bolteae strain: ATCCBAA-613 for biotransformation. The drug concentrations were measured before and after a 12-h incubation by liquid-chromatography-coupled mass spectrometry (LC–MS)

[10] = The drug is tested on Enterobacter cancerogenus strain: ATCC35316 for biotransformation. The drug concentrations were measured before and after a 12-h incubation by liquid-chromatography-coupled mass spectrometry (LC–MS); conditions: 2 µM
[11] = bacteroides fragilis, 12 h, 2 µM
Description: The drug is tested on Bacteroides fragilis strain: 3397 (T10) for biotransformation. The drug concentrations were measured before and after a 12-h incubation by liquid-chromatography-coupled mass spectrometry (LC–MS)

[12] = The drug is tested on Escherichia coli strain: BW25113 for biotransformation. The drug concentrations were measured before and after a 12-h incubation by liquid-chromatography-coupled mass spectrometry (LC–MS); conditions: 2 µM
[13] = limosilactobacillus reuteri cf48-3a, 12 h, 2 µM
Description: The drug is tested on Lactobacillus reuteri CF48-3A strain: BEI HM-102 for biotransformation. The drug concentrations were measured before and after a 12-h incubation by liquid-chromatography-coupled mass spectrometry (LC–MS)

[14] = The drug is tested on Collinsella aerofaciens strain: ATCC25986 for biotransformation. The drug concentrations were measured before and after a 12-h incubation by liquid-chromatography-coupled mass spectrometry (LC–MS); conditions: 2 µM
[15] = bacteroides thetaiotaomicron, 12 h, 2 µM; remark: listed apart in the source
Description: The drug is tested on Bacteroides thetaiotaomicron strain: VPI-5482 for biotransformation. The drug concentrations were measured before and after a 12-h incubation by liquid-chromatography-coupled mass spectrometry (LC–MS)

[16] = The drug is tested on Bacteroides fragilis strain: HMW610 for biotransformation. The drug concentrations were measured before and after a 12-h incubation by liquid-chromatography-coupled mass spectrometry (LC–MS); conditions: 2 µM
[17] = The drug is tested on Bacteroides sp. WH2 strain: WH2 for biotransformation. The drug concentrations were measured before and after a 12-h incubation by liquid-chromatography-coupled mass spectrometry (LC–MS); conditions: bacteroides sp. wh2, 12 h, 2 µM
[18] = The drug is tested on Clostridium sporogenes strain: ATCC15579 for biotransformation. The drug concentrations were measured before and after a 12-h incubation by liquid-chromatography-coupled mass spectrometry (LC–MS); conditions: 2 µM

Measured: Bacterial Biotransformation

COC(=O)[C@H]1[C@H]2C[C@@H]3c4[nH]c5cc(OC)ccc5c4CCN3C[C@H]2C[C@@H](OC(=O)c2cc(OC)c(OC)c(OC)c2)[C@@H]1OC [RESERPINE]
Compound NOT metabolized: all assays above
